Laboratory results published in ChEMBL document CHEMBL1201862, “PubChem BioAssay data set” (2004).
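Step 1: Grow cells in 96-well plates. Step 2: Expose to compound for 48 hours at 5 concentrations. Step 3: Interpolate endpoints linearly; if unreached, use highest concentration. GI50: concentration for 50% inhibition of growth.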 Activity calls are given as the source filed them. Rule as the data show it: active = GI50 up to about 1.1 µM and inactive = higher.

Experiments:
Assay in all cases: inhibition of tumour cell growth, NCI panel, 48 h
KM12 = tested on: KM12
SNB-19 = tested on: SNB-19
HT-29 = tested on: HT-29
MDA-MB-435 = tested on: MDA-MB-435
MDA-N = tested on: MDA-N
HCT-116 = tested on: HCT-116
A549 = tested on: A549
EKVX = tested on: EKVX
IGROV-1 = tested on: IGROV-1
Hs-578T = tested on: Hs-578T
OVCAR-4 = tested on: OVCAR-4
BT-549 = tested on: BT-549
RXF 393 = tested on: RXF 393
OVCAR-5 = tested on: OVCAR-5
SK-OV-3 = tested on: SK-OV-3
COLO 205 = tested on: COLO 205
A498 = tested on: A498
HOP-62 = tested on: HOP-62
SF-268 = tested on: SF-268
NCI-H226 = tested on: NCI-H226
SK-MEL-28 = tested on: SK-MEL-28
NCI/ADR-RES = tested on: NCI/ADR-RES
LOX IMVI = tested on: LOX IMVI
U-251 = tested on: U-251
OVCAR-8 = tested on: OVCAR-8
OVCAR-3 = tested on: OVCAR-3
CAKI-1 = tested on: CAKI-1
SK-MEL-5 = tested on: SK-MEL-5
M14 = tested on: M14
UO-31 = tested on: UO-31
NCI-H460 = tested on: NCI-H460
PC-3 = tested on: PC-3
SNB-75 = tested on: SNB-75
Malme-3M = tested on: Malme-3M
SF-539 = tested on: SF-539
SK-MEL-2 = tested on: SK-MEL-2
T47D = tested on: T47D
TK-10 = tested on: TK-10
HCC 2998 = tested on: HCC 2998
UACC-257 = tested on: UACC-257
HOP-92 = tested on: HOP-92
MDA-MB-231 = tested on: MDA-MB-231
SW-620 = tested on: SW-620
SF-295 = tested on: SF-295
DU-145 = tested on: DU-145
RPMI-8226 = tested on: RPMI-8226
HCT-15 = tested on: HCT-15
NCI-H23 = tested on: NCI-H23
ACHN = tested on: ACHN
CCRF-CEM = tested on: CCRF-CEM
MCF7 = tested on: MCF7
786-0 = tested on: 786-0
UACC-62 = tested on: UACC-62
SR = tested on: SR
NCI-H522 = tested on: NCI-H522
MOLT-4 = tested on: MOLT-4
K562 = tested on: K562
SN12C = tested on: SN12C

CCN(CC)CCNc1n[n+]([O-])c2cc([N+](=O)[O-])ccc2[n+]1[O-]
GI50 (KM12): 504 nM (active)
GI50 (SNB-19): 1190 nM (inactive)
GI50 (HT-29): 197 nM (active)
GI50 (MDA-MB-435): 847 nM (active)
GI50 (MDA-N): 452 nM (active)
GI50 (HCT-116): 300 nM (active)
GI50 (A549): 454 nM (active)
GI50 (EKVX): 1940 nM (inactive)
GI50 (IGROV-1): 116 nM (active)
GI50 (Hs-578T): 3250 nM (inactive)
GI50 (OVCAR-4): 1000 nM (active)
GI50 (BT-549): 1190 nM (inactive)
GI50 (RXF 393): 809 nM (active)
GI50 (OVCAR-5): 2040 nM (inactive)
GI50 (SK-OV-3): 687 nM (active)
GI50 (COLO 205): 326 nM (active)
GI50 (A498): 1900 nM (inactive)
GI50 (HOP-62): 434 nM (active)
GI50 (SF-268): 568 nM (active)
GI50 (NCI-H226): 1830 nM (inactive)
GI50 (SK-MEL-28): 3410 nM (inactive)
GI50 (NCI/ADR-RES): 979 nM (active)
GI50 (LOX IMVI): 444 nM (active)
GI50 (U-251): 603 nM (active)
GI50 (OVCAR-8): 283 nM (active)
GI50 (OVCAR-3): 865 nM (active)
GI50 (CAKI-1): 205 nM (active)
GI50 (SK-MEL-5): 429 nM (active)
GI50 (M14): 377 nM (active)
GI50 (UO-31): 1840 nM (inactive)

COc1ccc(C(C2C(=O)N(C)C(=O)N(C)C2=O)C(F)(F)C(=O)N(C)C)cc1 (stereo unspecified)
GI50 (KM12): > 100000 nM (inactive)
GI50 (SNB-19): > 100000 nM (inactive)
GI50 (NCI-H460): > 100000 nM (inactive)
GI50 (PC-3): > 100000 nM (inactive)
GI50 (MDA-MB-435): > 100000 nM (inactive)
GI50 (SNB-75): > 100000 nM (inactive)
GI50 (Malme-3M): > 100000 nM (inactive)
GI50 (SF-539): > 100000 nM (inactive)
GI50 (SK-MEL-2): > 100000 nM (inactive)
GI50 (T47D): > 100000 nM (inactive)
GI50 (HCT-116): > 100000 nM (inactive)
GI50 (TK-10): > 100000 nM (inactive)
GI50 (A549): > 100000 nM (inactive)
GI50 (HCC 2998): > 100000 nM (inactive)
GI50 (EKVX): > 100000 nM (inactive)
GI50 (UACC-257): > 100000 nM (inactive)
GI50 (OVCAR-4): > 100000 nM (inactive)
GI50 (BT-549): > 100000 nM (inactive)
GI50 (HOP-92): > 100000 nM (inactive)
GI50 (RXF 393): > 100000 nM (inactive)
GI50 (MDA-MB-231): > 100000 nM (inactive)
GI50 (OVCAR-5): > 100000 nM (inactive)
GI50 (SW-620): > 100000 nM (inactive)
GI50 (SK-OV-3): > 100000 nM (inactive)
GI50 (SF-295): > 100000 nM (inactive)
GI50 (COLO 205): > 100000 nM (inactive)
GI50 (DU-145): > 100000 nM (inactive)
GI50 (RPMI-8226): > 100000 nM (inactive)
GI50 (A498): > 100000 nM (inactive)
GI50 (HCT-15): > 100000 nM
GI50 (HOP-62): > 100000 nM (inactive)
GI50 (NCI-H23): > 100000 nM (inactive)
GI50 (ACHN): > 100000 nM (inactive)
GI50 (SF-268): > 100000 nM (inactive)
GI50 (NCI-H226): > 100000 nM (inactive)
GI50 (CCRF-CEM): > 100000 nM (inactive)
GI50 (MCF7): > 100000 nM (inactive)
GI50 (SK-MEL-28): > 100000 nM (inactive)
GI50 (786-0): > 100000 nM (inactive)
GI50 (NCI/ADR-RES): > 100000 nM (inactive)
GI50 (LOX IMVI): > 100000 nM (inactive)
GI50 (UACC-62): > 100000 nM (inactive)
GI50 (U-251): > 100000 nM (inactive)
GI50 (OVCAR-8): > 100000 nM (inactive)
GI50 (OVCAR-3): > 100000 nM (inactive)
GI50 (CAKI-1): > 100000 nM (inactive)
GI50 (SK-MEL-5): > 100000 nM (inactive)
GI50 (M14): > 100000 nM (inactive)
GI50 (UO-31): > 100000 nM (inactive)

CC[C@H]1C=CCC[C@@]2(C[C@@H]3CC[C@@H]4[C@H](C(=O)OCCCCCCCCCCCCCCCC(=O)N(CCCN)CCCCN)[C@]5(CCC[C@@H](C)O5)NC(=[N+]34)N2)O1
GI50 (SR): 28.1 nM (active)
GI50 (KM12): 45.9 nM (active)
GI50 (SNB-19): 381 nM (active)
GI50 (HT-29): 36.4 nM (active)
GI50 (NCI-H460): 30.1 nM (active)
GI50 (PC-3): 42.8 nM (active)
GI50 (MDA-MB-435): < 10 nM (active)
GI50 (SNB-75): 53.3 nM (active)
GI50 (Malme-3M): 40 nM (active)
GI50 (SF-539): 67.9 nM (active)
GI50 (SK-MEL-2): 25.9 nM (active)
GI50 (MDA-N): 12.1 nM (active)
GI50 (HCT-116): 27.5 nM (active)
GI50 (TK-10): 1230 nM (inactive)
GI50 (A549): 36.5 nM (active)
GI50 (HCC 2998): 64.1 nM (active)
GI50 (EKVX): 110 nM (active)
GI50 (UACC-257): 17.1 nM (active)
GI50 (IGROV-1): 69.5 nM (active)
GI50 (Hs-578T): 87.5 nM (active)
GI50 (OVCAR-4): 1340 nM (inactive)
GI50 (BT-549): 138 nM (active)
GI50 (HOP-92): 22.4 nM (active)
GI50 (RXF 393): 71 nM (active)
GI50 (MDA-MB-231): 275 nM (active)
GI50 (OVCAR-5): 108 nM (active)
GI50 (SW-620): 54.7 nM (active)
GI50 (SK-OV-3): 136 nM (active)
GI50 (SF-295): 24 nM (active)
GI50 (COLO 205): 33.6 nM (active)
GI50 (DU-145): 348 nM (active)
GI50 (RPMI-8226): 34.4 nM (active)
GI50 (A498): 1560 nM (inactive)
GI50 (HCT-15): 47.9 nM
GI50 (HOP-62): 41.5 nM (active)
GI50 (NCI-H23): 72.4 nM (active)
GI50 (ACHN): 82.6 nM (active)
GI50 (SF-268): 21.4 nM (active)
GI50 (NCI-H522): 42.5 nM (active)
GI50 (NCI-H226): 314 nM (active)
GI50 (MOLT-4): 15.5 nM (active)
GI50 (CCRF-CEM): 15.1 nM (active)
GI50 (MCF7): 68.4 nM (active)
GI50 (SK-MEL-28): 233 nM (active)
GI50 (K562): 29.9 nM (active)
GI50 (786-0): 22.9 nM (active)
GI50 (NCI/ADR-RES): 94.4 nM (active)
GI50 (LOX IMVI): 18 nM (active)
GI50 (UACC-62): 18.5 nM (active)
GI50 (U-251): 56.1 nM (active)
GI50 (OVCAR-8): 155 nM (active)
GI50 (SN12C): 75.3 nM (active)
GI50 (OVCAR-3): 73.8 nM (active)
GI50 (CAKI-1): 90.8 nM (active)
GI50 (SK-MEL-5): < 10 nM (active)
GI50 (M14): < 10 nM (active)
GI50 (UO-31): 51.9 nM (active)
